{"source": "patent US7030093B2", "about": "“Antibiotic coating for porous bodies and method for its production as well as its use” (HERAEUS Kulzer GmbH & Co. KG, priority 2002, dated 2006)"}
{"experiment": "Release of the antibiotic from the salts in an aqueous environment (finding in words)", "type": "physicochemical", "conditions": "method not given"}
{"substance": "Amikacin laurate", "Release of the underlying antibiotic in an aqueous environment": "in a delayed fashion"}
{"substance": "amikacin dodecyl sulfate", "Release of the underlying antibiotic in an aqueous environment": "in a delayed fashion"}
{"substance": "amikacin myristate", "Release of the underlying antibiotic in an aqueous environment": "in a delayed fashion"}
